We go through eight compounds from patent US7196192B2, “28-epirapalogs” (Ariad Gene Therapeutics, Inc., priority 1999, dated 2007).

In test [1] the target is T1, transcriptional switch components containing FKBP and 2098L mutant FRB domains (Homo sapiens, UniProt P42345+P62942).
T1 construct: transcriptional switchcomponents containing FKBP and 2098L mutant FRB domains, respectively; fused on or other part: The two switch components are separate chimeric proteins; Neither is given for this cell line
T1 sequence (P62942 2-108 limits assumed, stated change not applied, other chains not shown): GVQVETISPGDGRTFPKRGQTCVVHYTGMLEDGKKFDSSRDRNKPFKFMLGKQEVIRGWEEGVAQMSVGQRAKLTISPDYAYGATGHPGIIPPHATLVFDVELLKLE
Nature of the test: transcription assay in engineered HD1080 cells expressing SEAP (txn 2098L). Format: cell-based. The source says: The ability of the rapalogs to multimerize chimeric proteins may be measured in cell-based assays by measuring the occurrence of an event triggered by such multimerization. For instance, one may use cells containing and capable of expressing DNA encoding a first chimeric protein comprising one or more FKBP-domains and one or more effector domains as well as DNA encoding a second chimeric protein containing an FRB domain and one or more effector domains capable, upon multimerization, of actuating a biological response. We prefer to use cells which further contain a reporter gene under the transcriptional control of a regulatory element (i.e., promoter) which is responsive to the multimerization of the chimeric proteins. The design and preparation of illustrative components and their use in so engineered cells is described in WO99/36553 and WO96/41865 and the other international patent applications referred to in this and the foregoing section. (See also W099/10510 for additional guidance on the design, assembly and delivery of nucleic acids to render cells and animals responsive to rapalogs of interest and for additional guidance on applications of such systems.) The cells are grown or maintained in culture. A rapalog is added to the culture medium and after a suitable incubation period (to permit gene expression and secretion, e.g. several hours or overnight) the presence of the reporter gene product is measured. Positive results, i.e., multimerization, correlates with transcription of the reporter gene as observed by the appearance of the reporter gene product. The reporter gene product may be a conveniently detectable protein (e.g. by ELISA) or may catalyze the production of a conveniently detectable product (e.g. colored). Materials and methods for producing appropriate cell lines for conducting such assays are disclosed in the international patent applications cited above in this section.
2. EC50 values of the various compounds was measured in a transcription assay using genetically engineered HD1080 cells which constitutively express transcriptional switch components containing FKBP and 2098L mutant FRB domains, respectively and which regulatably express secreted alkaline phosphatase (SEAP) in the presence of a compound which multimerizes the switch components. The assay is a literature assay. See WO 99/36553, e.g. Example 12, pages 120–121 (& FIG. 2D) […]

Another test relates to murine splenocyte. Nature of the test: murine splenocyte assay for immunosuppressive activity. Format: cell-based. The following applies: mouse splenocyte assay, methods of Example 2.5, read-out: Splenocyte IC50. As to the method:
3. Conventional murine splenocyte assay for immunosuppressive activity.
(§1) A diverse group of C7-modified 28-epirapalogs were prepared as described in Example 4.

The target of the next test is FKBP (Homo sapiens, UniProt P62942). Nature of the test: FKBP competitive binding assay based on fluorescence polarization (FP). The settings on record: competitive FP binding, methods of Example 2.5. Here is the method:
A Competitive Binding FP Assay is described in detail in WO99/36553 and WO96/41865. That assay permits the in vitro measurement of an IC50 value for a given compound which reflects its ability to bind to an FKBP-protein in competition with a labeled FKBP ligand, such as, for example, FK506.
as §1
In general terms: Polarisation of emitted light reports the rotation of a fluorescent probe.

The mark [2] stands for this setting: cellular transcription assay, methods of Example 2.5; read-out: TXN 2098L EC50.
The mark [3] stands for this setting: read-out: TXN 2098L EC50; cellular transcription assay, methods of Example 2.5.

Read-outs that look alike come from different tables or passages of the source.

FKBP, sequence (P62942 whole entry): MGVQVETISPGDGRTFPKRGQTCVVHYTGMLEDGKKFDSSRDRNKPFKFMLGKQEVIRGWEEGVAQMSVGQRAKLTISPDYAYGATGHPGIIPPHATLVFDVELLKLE

On to `COC1CC(CC(C)C2CC(=O)C(C)C=C(C)C(O)C(OC)C(=O)C(C)CC(C)C=CC=CC=C(C)C(N(C)C(=O)OCC(C)C)CC3CCC(C)C(O)(O3)C(=O)C(=O)N3CCCCC3C(=O)O2)CCC1O` (single isomer, unassigned) [28-epi-7S-N-Me-isobutylcarbamate], for which the EC50 (in general, the concentration that produces a half-maximal response) in test [1] (setting [2]) was 40 nM. Also, the values for the IC50 with murine splenocyte and on FKBP (read-out: FKBP IC50) were 1380 nM and 19 nM, respectively.
For the compound `CCCS(=O)(=O)N(C)C1CC2CCC(C)C(O)(O2)C(=O)C(=O)N2CCCCC2C(=O)OC(C(C)CC2CCC(O)C(OC)C2)CC(=O)C(C)C=C(C)C(O)C(OC)C(=O)C(C)CC(C)C=CC=CC=C1C` (single isomer, unassigned) [28-epi-7S-N-Me-propanesulfonamide], in test [1] (setting [2]), the EC50 worked out at 35 nM. For the same compound, the “TXN 2098L peak relative to rapamycin peak” value in test [1] (superscript mark on EC50 cell) is “(+) (peak was >125% rapamycin peak)”. For the same compound, the IC50 (as a rule, the concentration at which inhibition is half-maximal) worked out at 2630 nM in the test with murine splenocyte (Mus musculus, Splenocyte) and 19 nM at FKBP (read-out: FKBP IC50).
Regarding `CCOC(=O)N(C)C1CC2CCC(C)C(O)(O2)C(=O)C(=O)N2CCCCC2C(=O)OC(C(C)CC2CCC(O)C(OC)C2)CC(=O)C(C)C=C(C)C(O)C(OC)C(=O)C(C)CC(C)C=CC=CC=C1C` (single isomer, unassigned) [28-epi-7S-N-methyl-ethylcarbamate], in test [1] (setting [2]), the half-maximal effective concentration (EC50) amounted to 12 nM. Besides, in test [1] (superscript mark on EC50 cell), the “TXN 2098L peak relative to rapamycin peak” value is listed as “(−) (peak was <80% rapamycin peak)”. In addition, the IC50 was determined as 2290 nM in the test on murine splenocyte and 30 nM at FKBP (read-out: FKBP IC50).
On to `COC1CC(CC(C)C2CC(=O)C(C)C=C(C)C(O)C(OC)C(=O)C(C)CC(C)C=CC=CC=C(C)C(OCc3ccccc3)CC3CCC(C)C(O)(O3)C(=O)C(=O)N3CCCCC3C(=O)O2)CCC1O` (single isomer, unassigned) [28-epi-7S-benzyloxy], for which the EC50 in test [1] (setting [2]) was 18 nM. Moreover, the IC50 was 93 nM with murine splenocyte and 70 nM at FKBP (read-out: FKBP IC50).
Regarding `CCN([C@@H]1C[C@@H]2CC[C@@H](C)[C@@](O)(O2)C(=O)C(=O)N2CCCC[C@H]2C(=O)O[C@H]([C@H](C)C[C@@H]2CC[C@@H](O)[C@H](OC)C2)CC(=O)[C@H](C)/C=C(\C)[C@H](O)[C@@H](OC)C(=O)[C@H](C)C[C@H](C)/C=C/C=C/C=C/1C)S(C)(=O)=O` [28-epi-7R-N-Et-methanesulfonamide], in test [1] (setting [3]), the EC50 stood at 8 nM. Further, in test [1] (superscript mark on EC50 cell), the “TXN 2098L peak relative to rapamycin peak” value is listed as “(+) (peak was >125% rapamycin peak)”. The IC50 with murine splenocyte (Mus musculus, Splenocyte) is 189 nM; on FKBP (FKBP IC50 (nM)), 31 nM.
Turning to `CO[C@@H]1C[C@H](C[C@@H](C)[C@@H]2CC(=O)[C@H](C)/C=C(\C)[C@H](O)[C@@H](OC)C(=O)[C@H](C)C[C@H](C)/C=C/C=C/C=C(\C)[C@H](N(C)C(=O)OCc3ccccc3)C[C@@H]3CC[C@@H](C)[C@@](O)(O3)C(=O)C(=O)N3CCCC[C@H]3C(=O)O2)CC[C@H]1O` [28-epi-7R-N-Me-benzylcarbamate], the EC50 in test [1] (setting [2]) came out at 8 nM. For the same compound, in test [1] (superscript mark on EC50 cell), the “TXN 2098L peak relative to rapamycin peak” value is listed as “(−) (peak was <80% rapamycin peak)”. For the same compound, the IC50 in the test with murine splenocyte (Mus musculus, Splenocyte) was determined as 1150 nM; at FKBP (read-out: FKBP IC50), 163 nM.
Regarding `CO[C@@H]1C[C@H](C[C@@H](C)[C@@H]2CC(=O)[C@H](C)/C=C(\C)[C@H](O)[C@@H](OC)C(=O)[C@H](C)C[C@H](C)/C=C/C=C/C=C(\C)[C@H](N(C)S(C)(=O)=O)C[C@@H]3CC[C@@H](C)[C@@](O)(O3)C(=O)C(=O)N3CCCC[C@H]3C(=O)O2)CC[C@H]1O` [28-epi-7R-N-Me-methanesulfonamide], in test [1] (setting [2]), the EC50 turned out to be 8 nM. In addition, the IC50 is 166 nM in the test with murine splenocyte (Mus musculus, Splenocyte) and 37 nM at FKBP (read-out: FKBP IC50).
In the case of `CO[C@@H]1C[C@H](C[C@@H](C)[C@@H]2CC(=O)[C@H](C)/C=C(\C)[C@H](O)[C@@H](OC)C(=O)[C@H](C)C[C@H](C)/C=C/C=C/C=C(\C)[C@H](N(C)S(=O)(=O)c3ccc(C)cc3)C[C@@H]3CC[C@@H](C)[C@@](O)(O3)C(=O)C(=O)N3CCCC[C@H]3C(=O)O2)CC[C@H]1O` [28-epi-7R-N-Me-p-toluenesulfonamide], the half-maximal effective concentration (EC50) in test [1] (setting [3]) was 8 nM. Moreover, the half-maximal inhibitory concentration (IC50) came to 12 nM with murine splenocyte (Mus musculus, Splenocyte) and 34 nM on FKBP (FKBP IC50 (nM)).
